Measured values: patent publication US20190201538A1, “TUMOR-TARGETING PHOTOSENSITIZER-DRUG CONJUGATE, METHOD FOR PREPARING SAME AND PHARMACEUTICAL COMPOSITION FOR PREVENTING OR TREATING TUMOR CONTAINING SAME” (KOREA INSTITUTE OF SCIENCE AND TECHNOLOGY, priority 2018, published 2019)
Numbered stars: 1 amine (or outer) side, 2 acyl side, 3 side chain; on linkers, the order of the positions; unused ones are H or OH. Square brackets hold non-standard residues; d marks the D form. Peptide text beside a SMILES is read from it. * marks the point of attachment. ξ: configuration not given here. X1 = C=Cc1c(C)c2cc3nc(c(CC(=O)O)c4nc(cc5[nH]c(cc1[nH]2)c(C)c5CC)C(C)=C4C(=O)O)C(CCC(=O)*)C3C; Dolaproine = CO[C@@H]([C@@H]1CCCN1)[C@@H](C)C(=O)O; ξDil = CC[C@H](C)C([C@@H](CC(=O)[*:2])OC)N(C)[*:1]; Dil = CC[C@H](C)[C@H](NC)[C@@H](CC(=O)O)OC; PABC = O=C(OCc1ccc(N[*:1])cc1)[*:2]; X2 = C[C@@H](N*)[C@@H](O)c1ccccc1; NMeV = CN[C@H](C(=O)O)C(C)C

How the values were obtained:
[1] = Toxicity in vivo in tumor animal model (C3H); set-up: species or system mouse; number of neutrophils: unit not given here; conditions: for change in number of total white blood cells (WBCs): 0.5 mg/kg (CDM based on MMAE concentration); for change in body weight: 50, 200, 500 μg/kg (CDM based on MMAE concentration); for survival rate: CDM 0.25 mg/kg based on MMAE, Ce6 1 mg/kg group
Method: The body weight change of the tumor animal model was measured every day after treatment with the drug. […] All the blood samples were stored at 4° C. and analyzed within a day in SCL (Seoul Clinical Laboratories, Korea).
First, a tumor animal model was prepared by transplanting SCC7 tumor cells into a C3H mouse. Details are described above in Materials and methods.
6 groups were prepared as follows by injecting drugs into the tail vein of the tumor animal model. […] The total treatment period was 14 days.

caspase-3 [2] = conditions: 500 nM, CDM + laser
Method: Caspase-3 colorimetric assay and western blot were conducted to quantify enzyme expression. First, SCC7 cells were cultured on a 100 mm^2 cell culture dish until 70% confluence and further cultured for 6 hours after adding a drug (500 nM). After replacing the medium, light was irradiated with 20 mW/cm^2 for 5 minutes. After culturing further for 3 hours, the cells were recovered for analysis of caspase-3. For immunoblotting assay, the cells were treated with anti-cleaved caspase-3 antibody (1:650) and anti-PARP antibody (1:1000) purchased from Cell Signaling Technology (Danvers, Mass.) as primary antibodies and then treated with HRP-conjugated anti-rabbit IgG and anti-mouse IgG (1:1000; R&D Systems) as secondary antibodies. The blotted membrane was analyzed with a chemiluminescence imager (LAS-3000; Fuji Photo Film, Japan). Colorimetric assay of caspase-3 was conducted using a microplate reader (VERSAmaxTM, Molecular Devices Corp., USA) and a caspase-3 assay kit (Abcam, Cambridge, MA) according to the manufacturer's instructions.

[3] = self-assembled nanoparticle, DPBS 0.1 mg/mL
Method: Molecular structure was investigated with ChemBioDraw Ultra 12.0 (Cambridge Soft Corporation), PyMOL 1.7.0.1 (DeLano Scientific) or Discovery Studio 4.0. […] Hydrodynamic size and distribution were measured by dynamic light scattering (SZ-100, Horiba, Ltd., Japan) using a 532 nm DPSS laser.

SCC7 cells [4] = assay: Cytotoxicity upon exposure to light (CCK-8)
Method: Specifically, 1×10^4 cells were seeded onto each well of a 96-well plate and cultured for 24 hours. Then, the cells were incubated with a drug at 500 nM for 6 hours after washing twice with PBS. After removing the culture medium, the cells were irradiated with light at 2.4 J/cm^2. The cells were then incubated for 30 minutes in a medium containing a 10% CCK-8 solution and absorbance was measured at 450 nm using a microplate reader.
(§1) The black circles indicate the sites irradiated with the laser.

SCC7 tumor [5] = assay: Antitumor effect in tumor animal model (C3H); conditions: for tumor growth with laser: drug + 671 nm laser 25 mW/cm^2, Ce6 1 mg/kg, CDM 0.25 mg/kg based on MMAE; for damage to other organs (biopsy) / tumor cell killing in H&E biopsy: drug + laser
Method: For evaluation of therapeutic effect in vivo, tumor volume was measured for a tumor animal model for 14 days. When the tumor tissue grew to a size of about 80 mm^3, the tumor animal model was evaluated by dividing into 6 groups as follows.
Then, the tumor size was measured every other day.
For histological analysis, tumor tissues and organ tissues were taken from the in-vivo animal model after conducting antitumor growth analysis. The extracted tissues were washed with PBS and fixed with a 4% paraformaldehyde solution. Then, the tissues were stained with H&E (hematoxylin and eosin) and the stained tissues were embedded in paraffin and placed on glass slides after cutting into 4 μm thick slices. After removing paraffin, the tissues were stained with H&E and observed under an optical microscope (BX 51; Olympus, USA). […] The tissues were cut into 10 μm thick slices, freeze-dried and then observed under a confocal laser scanning microscope.
A He—Ne laser (671 nm) was used and the laser was irradiated at 25 mW/cm^2 three times for 10 minutes after the injection of the drug (n=6).

caspase-3 [6] = target: caspase-3 (Homo sapiens, UniProt P42574)
Method: Finally, the mixture solution was analyzed by RP-HPLC (Agilent 1200 series, Agilent Technology, USA) equipped with a UV detector.

SCC7 tumor [7] = system: SCC7 tumor
Method: In order to conduct an in-vivo animal experiment, 5-week-oil BALB/c nude mouse mice were used as an allograft tumor animal model (BALB/c). The tumor animal model (BALB/c) was prepared by preparing a cell suspension containing 1×10^6 SCC7 cells and 80 μL of a medium and injecting it into the thighbone at the flank of the BALB/c nude mouse where the effect of respiratory movement is little. Then, the mice were bred for about 8 days until the tumor grew to a size of about 80 mm^3.
The tumor animal model prepared by administering various drugs as described in 9) was subjected to photodynamic therapy and the expression level of caspase-3 in vivo was monitored. For this, NIR fluorescence images were obtained using a probe which is activated by specifically reacting with caspase-3 (Cas3p; Cy5-GDEVD-BHQ3).
After 3 hours, Cas3p was injected and its biodistribution was measured using an excitation filter (640 nm) and an emission filter (710 nm).
First, in order to clarify the stimulation-specific therapeutic effect for a tumor animal model, the same tumor tissue was transplanted into different parts (left and right sides) of the same animal model and the two tumor tissues were compared.
A tumor animal model (Balb/c nu/nu) was prepared as described above in Materials and methods 9).

SCC7 cells [8] = conditions: 50 μg/mL
Method: Experiments were conducted using SCC7 cells as follows. Specifically, the cells were cultured in a medium containing 10% fetal bovine serum (FBS) and 1% antibiotic using a 5% CO2 incubator at 37 C. […] After the incubation was completed, the cells were washed and fixed with a 2% paraformaldehyde solution. Then, the cells were stained with 4,6-diamidino-2-phenylindole (DAPI, Invitrogen, USA).

[9] = pyrene method
Excerpt: Next, emission spectra were obtained at 372 nm and 383 nm using a spectrophotometer (F-7000, Hitachi High-Technologies Corporation, Japan) with an excitation wavelength of 340 nm. […] Fluorescence images were obtained at excitation (660 nm) and emission (710 nm) wavelengths.

[10] = self-assembled nanoparticle, physiological saline
Method: Morphology was observed by transmission electron microscopy (Talos F200X, FEI Company, USA). All the samples were treated with a 1% uranyl acetate solution to obtain negatively stained microscopic images.

SCC7 cells [11] = conditions: SCC7 cells incubated with CDM, laser irradiation
Method: The apoptosis of the fixed cells was measured using an annexin V-FITC apoptosis detection kit (Sigma-Aldrich Co., USA). […] Then, the light-irradiated cells were treated with trypsin and stained for 30 minutes with FITC-annexin V and propidium iodide (PI) according to the manufacturer's instructions. The fluorescence images of the stained cells were obtained using a confocal laser scanning microscope (Leica TCS SP8; Leica Microsystems, Germany).

SCC7 tumor [12] = assay: Biodistribution in vivo by NIR fluorescence imaging in tumor animal model; set-up: species or system mouse
Method: Near-infrared (NIR) fluorescence imaging was conducted using a real-time optical imaging system in order to evaluate biodistribution in vivo. […]
For the in-vivo experiment, a tumor animal model was prepared by injecting 1×10^6 SCC7 cells into the left flank of a nude mouse.

SCC7 cells [13] = assay: Cytotoxicity in vitro (CCK-8), with or without caspase-3; format: cell-based; conditions: for effect on tumor cells at 10 nM without caspase-3: not activated by caspase-3 / alone
Method: The cytotoxicity of a drug was evaluated by a colorimetric assay using the cell counting kit-8 (CCK-8; Dojindo Molecular Technologies, Inc., USA). […] After removing the culture medium, the plate was washed twice with PBS.

[14] = 1 mg/kg, tail vein
Method: For comparative analysis of pharmacokinetic characteristics in vivo, a tumor animal model was prepared in the same manner as in 9) using C57/BL6 mice instead of BALB/c nude mice.
After the injection, 20 μL of blood was taken from the tail vein of the tumor animal model (C57/BL6) over 12 hours at predetermined time intervals. The blood was immediately diluted to 5-fold with a 0.5 mg/kg low-molecular-weight heparin solution (DMSO:DIW cosolvent). Then, after transferring to a 96-well plate, the fluorescence intensity of the drug in the blood was measured by near-infrared (NIR) fluorescence quantification using a real-time optical imaging system equipped with a 660 nm excitation filter and a 710 nm emission filter. A calibration curve was constructed to analyze the concentration of the drug from the detected fluorescence intensity. The calibration curve was constructed by taking blood from an untreated tumor animal model and adjusting the concentration of the drug in the blood to 10^−8-10^−4.

[15] = physiological saline
SCC7 cells [16] = assay: Trypan blue staining after laser irradiation of a marked area; format: cell-based; conditions: 500 nM, 20 mW/cm^2 for 5 minutes
Method: […], SCC7 cells were cultured until 80% confluence on a 60 mm cell culture dish. […] After the incubation was completed, the culture medium was replaced. A laser was irradiated at 20 mW/cm^2 for 5 minutes only onto an area marked with a small circle on the culture dish. Then, the cells were treated with trypan blue for 1 minute.
as §1

[17] = Solubility in water, PBS and physiological saline; format: physicochemical; conditions: for solubility in water: dissolved in water alone

Chain of caspase-3 (Homo sapiens, UniProt P42574) (P42574 29-175 limits assumed, species assumed): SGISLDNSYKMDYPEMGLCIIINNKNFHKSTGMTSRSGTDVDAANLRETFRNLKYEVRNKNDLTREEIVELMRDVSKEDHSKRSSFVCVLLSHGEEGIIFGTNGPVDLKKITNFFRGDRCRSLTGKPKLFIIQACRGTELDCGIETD
Chain of caspase-3 (Homo sapiens, UniProt P42574) (P42574 176-277 limits assumed, species assumed): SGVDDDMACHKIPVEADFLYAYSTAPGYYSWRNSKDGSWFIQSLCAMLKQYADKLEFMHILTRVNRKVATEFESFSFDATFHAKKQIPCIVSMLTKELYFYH

## C=Cc1c(C)c2cc3nc(c(CC(=O)O)c4nc(cc5[nH]c(cc1[nH]2)c(C)c5CC)C(C)=C4C(=O)O)C(CCC(=O)NCCCC[C@H](NC(C)=O)C(=O)NCC(=O)N[C@@H](CC(=O)O)C(=O)N[C@@H](CCC(=O)O)C(=O)N[C@H](C(=O)N[C@@H](CC(=O)O)C(=O)Nc1ccc(COC(=O)N(C)[C@H](C(=O)N[C@H](C(=O)N(C)C([C@@H](C)CC)[C@@H](CC(=O)N2CCC[C@H]2[C@H](OC)[C@@H](C)C(=O)N[C@H](C)[C@@H](O)c2ccccc2)OC)C(C)C)C(C)C)cc1)C(C)C)C3C (stereo partly shown) [CDM, Ce6-(Ac)KGDEVD-PABC-MMAE] (Ac-K(X1)GDEVD[PABC][NMeV]V[ξDil][Dolaproine]-X2)
[1]
  change in number of total white blood cells (WBCs): no change
  change in body weight: 4.8±0.2%
  survival rate: 100%
[1]; 0.5 mg/kg based on MMAE concentration
  number of neutrophils: 1.6±1.0000
caspase-3 [2]
  intracellular caspase-3 level (western blot): increased the intracellular concentration of caspase-3
[3]
  average diameter (hydrodynamic, DLS): 90.8±18.9 nm
SCC7 cells [4]; 500 nM, light irradiated from outside (laser (+))
  cell viability: 12.8±9.2%
SCC7 cells [4]; after external stimulation (light irradiation or caspase-3)
  cytotoxic effect compared to when the drugs are used alone: ≥ 2 time
SCC7 tumor [5]; CDM group, laser not irradiated
  tumor size with time, no laser: no change in tumor size
SCC7 tumor [5]; CDM+laser group
  tumor weight decrease compared to the CDM group and the laser group: 99.6%
SCC7 tumor [5]
  tumor growth with laser: no tumor growth
  damage to other organs (biopsy): no damage to other organs
  tumor cell killing in H&E biopsy: killed extensively
caspase-3 [6]; 10 μM CDM, 500 ng/mL caspase-3, 37° C.
  time to effective activation by caspase-3: ≤ 2 h
caspase-3 [6]; incubation for 2 hours
  activation by caspase-3 in presence of caspase-3 inhibitor (Z-DEVD-FMK): not completely activated
SCC7 tumor [7]; 0.5 mg/kg, 15 days
  growth of left-side vs right-side (laser) tumor: distinct difference in the growth of the left-side and right-side tumors
SCC7 tumor [7]; CDM i.v., laser on right-side tumor only
  caspase-3 probe (Cy5-GDEVD-BHQ3) fluorescence in tumors: observed only in the right-side tumor
SCC7 cells [8]
  time to accumulation in the cells in an enough amount: ≤ 3 h
[9]
  critical micelle concentration (CMC): about 1.382 μM
[10]
  average diameter (TEM images): about 52.6±20.0 nm
SCC7 cells [11]
  apoptosis induction on light irradiation: can induce apoptosis even with a small quantity of light
SCC7 tumor [12]; liver, lung, spleen, kidney, heart and tumor tissues
  fluorescence intensity in organs and tumor 24 hours after injection: high
SCC7 tumor [12]; mouse, in vivo
  fluorescence intensity in the tumor tissue relative to Ce6-injected model: 12.8-4.2
SCC7 tumor [12]; tail vein injection
  time of highest fluorescence intensity in the tumor: 6 to 12 h
SCC7 cells [13]; 10 nM in combination with caspase-3
  tumor cell growth (cell viability, CCK): 50.1%
SCC7 cells [13]
  effect on tumor cells at 10 nM without caspase-3: little effect
SCC7 cells [13]; 50 nM in the presence of caspase-3
  cell survival rate: 42.5%
SCC7 cells [13]; 200 nM in the presence of caspase-3
  cell survival rate: 32.5%
SCC7 cells [13]; 600 nM in the presence of caspase-3
  cell survival rate: 25.5%
[14]
  blood level at first: higher than that of Ce6
[15]
  average diameter (SEM): 50-200 nm
SCC7 cells [16]
  cells killed after laser irradiation of a marked area: nearby cells were also killed effectively
[17]; water, PBS and physiological saline
  solubility: dissolves well in all of water, PBS and physiological saline

## CC[C@H](C)[C@@H]([C@@H](CC(=O)N1CCC[C@H]1[C@H](OC)[C@@H](C)C(=O)N[C@H](C)[C@@H](O)c1ccccc1)OC)N(C)C(=O)[C@@H](NC(=O)[C@@H](NC)C(C)C)C(C)C [MMAE, monomethyl auristatin E] (H-[NMeV]V[Dil][Dolaproine]-X2)
[1]; 0.5 mg/kg
  increase in plasma ALT: 1.5 times
  increase in plasma AST: 2.7 times
  neutrophils, times less as compared to the saline group: 4.9 times
  percentage of the neutrophils to the total white blood cells: 2.5±1.4%
[1]
  change in number of total white blood cells (WBCs): 35.7±13.8%
  change in body weight: 31.6±2.2%
[1]; MMAE 0.25 mg/kg
  day on which all were killed: 4 days
  day on which group began to die: 3 days
[1]; MMAE group
  size of lymphocytes (lymphoid tissue; white pulp) in spleen: significantly decreased
  spleen weight decrease: 75±11.8%
[1]; MMAE group, 0.25 mg/kg
  body weight decrease: 31.9±1.6%
SCC7 cells [4]; treated with MMAE only
  cell viability: 25.8±10.1%
SCC7 tumor [5]; MMAE 0.25 mg/kg only
  outcome of group during the antitumor experiment: died during the experiment because of too strong toxicity
[17]
  solubility in water: water insolubility

## Chlorin e6 [Ce6, reference compound]
[1]
  survival rate: 100%
SCC7 tumor [5]
  tumor growth with laser: tumor growth-inhibiting effect
  damage to other organs (biopsy): no damage to other organs
  tumor cell killing in H&E biopsy: very insignificant
SCC7 tumor [12]; tail vein injection
  fluorescence in the tumor tissue: hardly detected
SCC7 cells [13]
  effect on tumor cells at 10 nM without caspase-3: no effect
SCC7 cells [16]
  cells killed after laser irradiation of a marked area: only the cells treated with a laser were killed
[17]
  solubility in water: water insolubility
